This is an account of results in patent US20130035281A1, “PHARMACEUTICAL COMPOSITION, METHODS FOR TREATING AND USES THEREOF” (BOEHRINGER INGELHEIM INTERNATIONAL GMBH, priority 2011, published 2013).

The conditions of assay [1]: metformin on its own, in the diabetic; cited from earlier work.
Assay [2] deals with Zucker diabetic fatty (ZDF) rats. In words: Oral glucose tolerance test in ZDF rats. It counts as in vivo. To be noted: overnight fasted 12-weeks old male ZDF rats; single dose; Cpd. A 3 mg/kg oral, exendin-4 0.01 mg/kg subcutaneous; oral glucose 2 g/kg; blood glucose up to 120 min.
Method: An oral glucose tolerance test was performed in overnight fasted 12-weeks old male Zucker diabetic fatty (ZDF) rats (ZDF/CRL-Lepr^fa). A pre-dose blood sample was obtained by tail bleed. Blood glucose was measured with a glucometer, and the animals were randomized for blood glucose (n=5/group). Subsequently, the groups received a single oral administration of either vehicle alone (0.5% aqueous hydroxyethylcellulose) or this vehicle containing the glucopyranosyl-substituted benzene derivative. […] The animals were orally dosed with glucose (2 g/kg) 30 min after the subcutaneous injection. Blood glucose was measured in tail blood 15 min, 30 min, 60 min, 90 min, and 120 min thereafter. Glucose excursion was quantified by calculating the reactive glucose AUC. The data are presented as mean±S.E.M. The two-sided unpaired Student's t-test was used for statistical comparison of the groups. A p value<0.05 was considered to show a statistically significant difference.

For the molecule `CN(C)C(=N)N=C(N)N` [metformin], in assay [1], the “average improvement in the HbA1c value” is reported as 1.0-1.5%.
With `OC[C@H]1O[C@@H](c2ccc(Cl)c(Cc3ccc(O[C@H]4CCOC4)cc3)c2)[C@H](O)[C@@H](O)[C@@H]1O` [Cpd. A], the “reduction of glucose excursion (reactive glucose AUC)” value in assay [2] amounted to 57%.
